# Where a name gives a salt, the structure may show the parent alone.
# Key:
# Tubulin = molecular target: T1, Tubulin (Sus scrofa, UniProt P02550+P02554); assay: Assessment of the inhibition of tubulin polymerization (turbidimetry); assay type: biochemical, pig; conditions: tubulin 10 μM, turbidity at 350 nm, 37° C.
# T1 construct: Tubulin is purified from pig brains according to the published methods; from tissue; host or cells: pig brain
# Experimental: Tubulin is purified from pig brains according to the published methods (Shelanski et al., 1973, Proc. Natl, Acad. Sci. USA, 70, 765-768. Weingarten et al., 1975, Proc. Natl, Acad. Sci. USA, 72, 1858-1862). Briefly, the brains are ground and centrifuged in an extraction buffer. The tubulin, contained in the extract supernatant, is subjected to two successive cycles of polymerization at 37° C. and depolymerization at 4° C., before being separated from the MAPs (Microtubule Associated Proteins) by chromatography on a phosphocellulose P11 column (Whatman). The tubulin thus isolated is more than 95% pure. It is stored in a buffer known as RB/2 30% glycerol, the composition of which is MES-NaOH [2-(N-morpholino)ethanesulfonic acid] 50 mM, pH 6.8; MgCl2 0.25 mM; EGTA 0.5 mM; 30% glycerol (v/v), GTP (guanosine 5′-triphosphate) 0.2 mM.
# The polymerization of the tubulin into microtubules is monitored by turbidimetry as follows; the tubulin is adjusted to a concentration of 10 μM (1 mg/ml) in the RB/2 30% glycerol buffer, to which is added 1 mM GTP and 6 mM MgCl2. The polymerization is initiated by increasing the temperature from 6° C. to 37° C. in a cuvette with a 1 cm optical pathlength, placed in a Uvikon 931 spectrophotometer (Kontron) equipped with a thermostatically-regulated cuvette holder. The increase in the turbidity of the solution is monitored at 350 nm.
# The products are dissolved at 10 mM in DMSO and added at variable concentrations (0.5 to 10 μM) to the tubulin solution before polymerization. The IC50 value is defined as the concentration of product which inhibits 50% of the rate of polymerization. A product whose IC50 value is less than or equal to 3 μM is considered as very active.
# HDMEC = assay: Inhibition of cell proliferation, HDMEC; assay type: cell-based; conditions: Homo sapiens
# HDMEC cells = assay: Detachment effect on HDMEC endothelial cells; assay type: cell-based, Human; conditions: 1 μM, treatment for two hours
# Source text: A test to determine the detachment of endothelial cells was established in order to select the products on the basis of their “in vitro” activity. This test for determining the endothelial cell detachment is characterized in that the endothelial cells, inoculated in plates which are coated at the bottom with a binder, e.g., chosen from gelatin, fibronectin or vitronectin, after culturing, are supplemented with a medium containing the test compound, and the cells are then labeled with a fluorescent substance, the cells which become detached are removed by washing and the fluorescence of the remaining cells is counted in a fluorimeter.
# This test consists in measuring the detachment of endothelial cells cultured on substrates based on a binder, e.g., chosen from fibronectin, vitronectin and gelatin. One day after inoculating the cells in plates containing 96 wells, for example, the culture medium is replaced with a medium containing the test compound in the absence of serum. The same preparation is prepared six times at three different concentrations ([…]) and the control without addition of antivascular product is prepared six times. After treatment for two hours with the test substance, the cells are labeled with calcein-AM (1.6 μg/ml) in a culture medium supplemented with 0.1% BSA. The cells which become detached are removed by washing with the culture medium containing 0.1% bovine serum albumin; 100 μl of medium are added to each well. The fluorescence of the remaining cells is counted in a fluorimeter. The data obtained are expressed relative to the control (untreated cells).
# (§1) The assessment of the detachment of the endothelial cells in vitro is determined in the following way. HDMEC cells (Human Dermal Microvascular Endothelial Cells, Promocell, c-122102) are cultured in an ECGM-MV medium containing 5% fetal calf serum, growth factors (EGF 10 ng/ml, hydrocortisone 1 μg/ml, 0.4% growth supplement with heparin) and antibiotics (amphotericin 50 ng/ml, gentamicin 50 μg/ml). For the detachment test, the HDMECs are inoculated at a rate of 5 000 cells in clear-bottomed 96-well plates (Costar) precoated with fibronectin (10 μg/ml) or vitronectin (1 μg/ml) or gelatin. Twenty-four hours later, the culture medium is replaced with 0.1% BSA ECGM-MV medium containing the indicated products. The test concentrations are 0.1-0.3 and 1 μM for each product. After treatment for two hours, the cells are labeled for 1 hour with calcein (1.6 μg/ml, Molecular Probes) in 0.1% BSA ECGM-MV medium. The detached cells are then removed by washing with 0.1% BSA ECGM-MV medium; 100 μl of medium are added to each well. The fluorescence of the cells which remain attached to the substratum of the well is counted using a fluorimeter, Spectrafluor Plus (Tecan, excitation at 485 nm, and emission at 535 nm). The data are the average of six different samples and are expressed as a percentage of the control (untreated cells).
# A cell detachment effect of greater than or equal to 15% is considered as significant.
# as §1, with “(amphotericine” for “(amphotericin”, “The detached cells are then removed by washing with 0.1% BSA ECGM-MV medium; 100 μl of medium are added to each well. The fluorescence of the cells which remain attached to the substratum of the well is counted using a fluorimeter, Spectrafluor Plus (Tecan, excitation at 485 nm, and emission at 535 nm). The data are the average of six different samples and are expressed as a percentage of the control (untreated cells).” left out
# [1] = test system: C51 murine adenocarcinoma; assay: Assessment of the tumor necrosis in vivo; conditions: intravenous injection, 24 hours after treatment, female BALB/c mice
# Source text: Mice are bred by IFFA-CREDO (Domaine des Oncins, 69210 L'Arbresle, France) from a race obtained by Jackson Laboratories, Bar Harbor, Me., USA, or by Charles River France (76410 St Aubin les Elbeuf, France) from a race obtained by Charles River, USA. The mice initially weigh more than 18 g at the start of the test. They have free access to food (UAR reference 113, Villemoisson, 91160 Epinay sur Orge, France) and water.
# The tumors used are currently transplanted in our laboratories. All these tumors are at the Frederick Cancer Research Facility (Frederick, Md., USA) in the frozen tumor deposit of the National Cancer Institute (NCl) or at the American Type Culture Collection (ATCC, Rockville, Md., USA).
# The tumor transplantation techniques, the chemotherapy and the data analysis are presented in detail (Corbett et al. 1982a; Corbett et al., 1982b).
# To summarize, the animals required for an experiment are assembled and implanted bilaterally on day 0 (zero).
# The growth of the solid tumors develops freely up to the desired size. The mice are then treated by intravenous injection of a test compound in solution.
# The sampling of tumors is usually (but not necessarily) carried out 24 hours after the treatment.
# The mice are killed by […]. The implanted tumors, along with the skin covering them and the neighboring tissues, are collected and stored in 10% formaldehyde (v/v) (Carlo Erba, Val de Reuil, France).
# The samples are then treated, sectioned, stained with hematoxylin, eosin and saffron yellow, and are then examined […]. The tumor necrosis (necrosis±degeneration) is assessed microscopically using a scale of magnitude from 0 to 5:
# The values assigned to the tumor necrosis 24 hours after administration of the test compound correspond solely to a necrosis dependent on the product which may be differentiated with certainty from any existing necrosis arising from the experiment.
# The necrosis due to the experiment was assessed on an untreated control.
# The tumor model is a C51 murine adenocarcinoma. This colon tumor is a grade III mucous colon […]. It is maintained by serial subcutaneous passages every 18 days in female BALB/c mice. The experiments were carried out on female BALB/c mice.
# T1 sequence (P02550 whole entry): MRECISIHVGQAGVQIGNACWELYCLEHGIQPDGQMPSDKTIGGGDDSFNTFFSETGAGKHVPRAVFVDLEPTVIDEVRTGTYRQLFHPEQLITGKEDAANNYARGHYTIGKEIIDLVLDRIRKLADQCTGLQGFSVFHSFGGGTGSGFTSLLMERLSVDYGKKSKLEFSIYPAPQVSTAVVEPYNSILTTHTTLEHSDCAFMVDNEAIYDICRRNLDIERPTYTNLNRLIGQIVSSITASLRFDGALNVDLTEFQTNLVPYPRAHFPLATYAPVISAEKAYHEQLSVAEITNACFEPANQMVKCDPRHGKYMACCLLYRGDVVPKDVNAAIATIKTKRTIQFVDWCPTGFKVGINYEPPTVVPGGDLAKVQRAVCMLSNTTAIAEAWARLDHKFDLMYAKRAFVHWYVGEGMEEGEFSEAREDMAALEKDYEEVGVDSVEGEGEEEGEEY
# T1 sequence (P02554 whole entry): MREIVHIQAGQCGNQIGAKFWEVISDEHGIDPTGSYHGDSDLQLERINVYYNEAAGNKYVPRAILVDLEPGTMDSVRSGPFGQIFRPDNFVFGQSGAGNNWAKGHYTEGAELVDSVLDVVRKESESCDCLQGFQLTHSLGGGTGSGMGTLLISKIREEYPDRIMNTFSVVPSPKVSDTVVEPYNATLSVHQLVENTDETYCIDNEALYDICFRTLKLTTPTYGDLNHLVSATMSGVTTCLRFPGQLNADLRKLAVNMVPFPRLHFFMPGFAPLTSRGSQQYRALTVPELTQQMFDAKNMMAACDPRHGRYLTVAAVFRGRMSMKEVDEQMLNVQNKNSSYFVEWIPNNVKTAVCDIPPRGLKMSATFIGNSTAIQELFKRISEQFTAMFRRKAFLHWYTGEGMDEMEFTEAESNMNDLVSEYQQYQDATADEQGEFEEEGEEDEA
IC50 (Tubulin) [nM],melting point [°C],SMILES,IC50 (HDMEC) [nM],Percentage of detachment of HDMEC cells induced with the compound at a concentration of 1 μM (HDMEC cells) [%],C51 colon tumor necrosis in vivo (grade) ([1]; 25 mg/kg),C51 colon tumor necrosis in vivo (grade) ([1]; 50 mg/kg)
2000,118,"COc1cc(C(=O)/C(C)=C/c2ccc3c(ccn3CCN(C)C)c2)cc2c1OCO2 [Example 18, E-2-Methyl-3-[1-(2-dimethylaminoethyl)-1-H-indol-5-yl]-1-(3-methoxy-4,5-methylenedioxyphenyl)propenone]",,,,
,,"COc1ccc(C=C(C)C(=O)c2cc(OC)c(OC)c(OC)c2)cc1NC(=O)[C@@H](N)CCCCN.Cl.Cl [Example 10, (S)-2,6-Diaminohexanoic acid {2-methoxy-5-[2-methyl-3-oxo-3-(3,4,5-trimethoxyphenyl)propenyl]-phenyl}amide dihydrochloride]",207 to 225,36,"Grade 5 at 25 (5=large, >75%)",
800,,"COc1cc(C(=O)/C(C)=C/c2ccc3c(c2)CCN3C)cc(OC)c1OC [Example 6, E-2-Methyl-3-(1-methyl-2,3-dihydro-1-H-indol-5-yl)-1-(3,4,5-trimethoxyphenyl)propenone]",17 to 20,28,,"Grade 5 at 50 (5=large, >75%)"
800,140,"COc1cc(C(=O)/C(C)=C/c2ccc3[nH]ccc3c2)cc2c1OCO2 [Example 17, E-2-Methyl-3-(1-H-indol-5-yl)-1-(3-methoxy-4,5-methylenedioxyphenyl)propenone]",,,,

SMILES,IC50 (Tubulin) [nM],melting point [°C],IC50 (HDMEC) [nM],Percentage of detachment of HDMEC cells induced with the compound at a concentration of 1 μM (HDMEC cells) [%],C51 colon tumor necrosis in vivo (grade) ([1]; 25 mg/kg),C51 colon tumor necrosis in vivo (grade) ([1]; 50 mg/kg)
"COc1ccc(/C=C(\C)C(=O)c2cc(OC)c(OC)c(OC)c2)cc1NC(=O)CN [Example 14, Aminoacetic acid {2-methoxy-5-[2-methyl-3-oxo-3-(3,4,5-trimethoxyphenyl)propenyl]phenyl}amide hydrochloride]",25000,,10,36,"Grade 5 at 25 (5=large, >75%)",
